The values that follow come from the Biogen ADME set (Fang et al. 2023).

In brackets after ≈: the same amount, converted by molar mass.

The term aqueous solubility denotes the dissolved amount per volume that the medium holds. Lower therefore signals little dissolved substance.

For the series the following is noted: for aqueous solubility: pH 6.8.

On to `Cc1nc(-c2cnn(C)c2-c2ccc(C(F)(F)F)cn2)c2c(N3CCC3)ncnn12`, for which the MDR1-MDCK efflux ratio came to 12.2; the intrinsic clearance, human liver microsomes was found to be 54.3 mL/min/kg; the intrinsic clearance, rat liver microsomes is 294 mL/min/kg; the aqueous solubility amounted to 65.1 µg/mL (≈ 157 µM).
`Cn1ccc(NC(=O)c2cc(-c3ccncc3)nc3ccccc23)n1`: the intrinsic clearance, human liver microsomes was 21.4 mL/min/kg; the intrinsic clearance, rat liver microsomes stood at 65.7 mL/min/kg; the aqueous solubility came to 31.5 µg/mL (≈ 95.6 µM).
Consider `CC(C)CCNC(=O)CSc1nc2ccccc2[nH]1`, for which the MDR1-MDCK efflux ratio is 3.98; the intrinsic clearance, human liver microsomes was found to be 114 mL/min/kg; the intrinsic clearance, rat liver microsomes came out at 1110 mL/min/kg.
The molecule `COc1ccc2c(c1)CN(c1nc(C)cc(C)n1)CC2` gave an intrinsic clearance, human liver microsomes of 129 mL/min/kg; an intrinsic clearance, rat liver microsomes of 484 mL/min/kg; an aqueous solubility of 10.1 µg/mL (≈ 37.5 µM).
Take `Cn1ccc(CN2CCC(c3cnccn3)CC2)n1`: the MDR1-MDCK efflux ratio came to 0.983; the intrinsic clearance, human liver microsomes is no more than 4.74 mL/min/kg; the intrinsic clearance, rat liver microsomes is 26.8 mL/min/kg; the aqueous solubility came out at 50 µg/mL (≈ 194 µM).
In the case of `Cc1noc(CCNc2ncnc3ccccc23)n1`, the MDR1-MDCK efflux ratio was found to be 0.926; the intrinsic clearance, human liver microsomes is no more than 4.74 mL/min/kg; the intrinsic clearance, rat liver microsomes was 94.4 mL/min/kg; the aqueous solubility amounted to 38.2 µg/mL (≈ 149 µM).
`Cc1cc(C(=O)O)nn1-c1ccccn1` yielded an intrinsic clearance, human liver microsomes of no more than 4.74 mL/min/kg and an intrinsic clearance, rat liver microsomes of no more than 10.7 mL/min/kg.
As for `CN(CCSc1ccc2nnc(C(F)F)n2n1)Cc1ccccc1`, the MDR1-MDCK efflux ratio was found to be 0.653; the intrinsic clearance, human liver microsomes turned out to be 246 mL/min/kg; the intrinsic clearance, rat liver microsomes was determined as 3180 mL/min/kg.
On to `CC(C)CCN1CCC(CNC(=O)C2CC=CC2)CC1`, for which the MDR1-MDCK efflux ratio came out at 3.77; the intrinsic clearance, human liver microsomes came out at 12.5 mL/min/kg; the intrinsic clearance, rat liver microsomes came out at 141 mL/min/kg.
For `CC(C)Oc1ccc(C2(C(=O)NC3CCS(=O)(=O)CC3)CCCC2)cc1` the same measures were 37.9, 15.7 mL/min/kg and 210 mL/min/kg.
For the molecule `O=C1CCC(=O)N1CCN1CCCCc2ccccc21`, the MDR1-MDCK efflux ratio turned out to be 0.651; the intrinsic clearance, human liver microsomes is 122 mL/min/kg; the intrinsic clearance, rat liver microsomes was 1470 mL/min/kg; the aqueous solubility is 55.8 µg/mL (≈ 205 µM).
The like results for `Cc1cc(OCc2ncc(C(C)(C)C)o2)nn1C` were, in that order, 0.716, 27.8 mL/min/kg, 655 mL/min/kg and 18.5 µg/mL (≈ 74.2 µM).
For the molecule `CC(=O)NC1CCC(NCCc2c(C)cccc2C)CC1` (stereo not given), the MDR1-MDCK efflux ratio came to 19.8; the intrinsic clearance, human liver microsomes was no more than 4.74 mL/min/kg; the intrinsic clearance, rat liver microsomes turned out to be 1140 mL/min/kg.
Consider `Cc1ccc2cccc(OCC(=O)N(C)c3ccccc3)c2n1`, for which the MDR1-MDCK efflux ratio came to 1.52; the intrinsic clearance, human liver microsomes turned out to be 126 mL/min/kg; the intrinsic clearance, rat liver microsomes is 482 mL/min/kg; the aqueous solubility is 55 µg/mL (≈ 179 µM).
Take `Cc1ccc(CCNc2nc(C)cc(C)n2)cn1`: the intrinsic clearance, human liver microsomes was 12.7 mL/min/kg and the intrinsic clearance, rat liver microsomes came out at 192 mL/min/kg.
Take `Cc1cn2cc(C(=O)N(C)CCO)cc(N[C@@H]3CCOc4cccc(C)c43)c2n1`: the MDR1-MDCK efflux ratio was 73.4; the intrinsic clearance, human liver microsomes was 83.6 mL/min/kg; the intrinsic clearance, rat liver microsomes was determined as 288 mL/min/kg.
For `O=C(Nc1ccccc1)Nc1ccc(OC(F)(F)F)cc1`, the MDR1-MDCK efflux ratio amounted to 0.328 and the aqueous solubility is 0.8 µg/mL (≈ 2.7 µM).
`N#Cc1cccc(CN2CCN(CCO)CC2)c1` had an intrinsic clearance, human liver microsomes of 6.28 mL/min/kg; an intrinsic clearance, rat liver microsomes of 126 mL/min/kg; an aqueous solubility of 29.3 µg/mL (≈ 119 µM).
As to `c1ccc(OCCN2CCN(c3ncccn3)CC2)cc1`, the MDR1-MDCK efflux ratio worked out at 0.534; the intrinsic clearance, human liver microsomes was 126 mL/min/kg; the intrinsic clearance, rat liver microsomes worked out at 516 mL/min/kg.
In the case of `Nc1nc2ccccc2n1C1CCCC1`, the intrinsic clearance, human liver microsomes was 37.1 mL/min/kg and the intrinsic clearance, rat liver microsomes was found to be 87.6 mL/min/kg.
On to `CN(c1ncc(Br)cn1)C1CCS(=O)CC1` (stereo not given), for which the MDR1-MDCK efflux ratio was 0.943; the intrinsic clearance, human liver microsomes is no more than 4.74 mL/min/kg; the intrinsic clearance, rat liver microsomes was 25.7 mL/min/kg; the aqueous solubility came out at 76.3 µg/mL (≈ 251 µM).
Take `Cc1nc(-c2cc(C)on2)n(CCc2ccccc2)n1`: the MDR1-MDCK efflux ratio is 0.6; the intrinsic clearance, human liver microsomes amounted to 92.1 mL/min/kg; the intrinsic clearance, rat liver microsomes stood at 3950 mL/min/kg; the aqueous solubility stood at 21.5 µg/mL (≈ 80.2 µM).
The molecule `Nc1nc(N2CCN(CC3CCCC3)C(=O)C2)cc(-n2cccn2)n1` showed an intrinsic clearance, human liver microsomes of 47.2 mL/min/kg and an intrinsic clearance, rat liver microsomes of 1150 mL/min/kg.
`CC1(C)C(=O)N(Cc2ccc(CO)cc2)C(=O)c2ccccc21` gave an aqueous solubility of 27.5 µg/mL (≈ 88.8 µM).
In turn, `Cc1cc(CO)nc(N2CCCCC2)n1` displayed an intrinsic clearance, human liver microsomes of 26.7 mL/min/kg and an intrinsic clearance, rat liver microsomes of 113 mL/min/kg.
As to `O=C1N=C(N2CCCCN2)S/C1=C\c1ccc(F)cc1O`, the MDR1-MDCK efflux ratio is 1.69 and the aqueous solubility stood at 0.9 µg/mL (≈ 2.93 µM).
As for `CSc1ncccc1C(=O)Nc1ccc(-c2nnc(C)[nH]2)cc1`, the MDR1-MDCK efflux ratio was determined as 6.96; the intrinsic clearance, human liver microsomes is no more than 4.74 mL/min/kg; the intrinsic clearance, rat liver microsomes amounted to 44.1 mL/min/kg.
`CN(C)Cc1ccc(-c2ccccc2C(=O)O)cc1` yielded an intrinsic clearance, human liver microsomes of no more than 4.74 mL/min/kg; an intrinsic clearance, rat liver microsomes of no more than 10.7 mL/min/kg; an aqueous solubility of 30.5 µg/mL (≈ 119 µM).
The like results for `O=C(CSCCCn1c(=O)[nH]c2ccccc21)N1CCCCC1` were, in that order, 68.3 mL/min/kg, 760 mL/min/kg and 59.6 µg/mL (≈ 179 µM).
With `Cc1cccnc1CNC(=O)c1ccc(Cl)s1`, the intrinsic clearance, human liver microsomes came out at 39.6 mL/min/kg and the intrinsic clearance, rat liver microsomes turned out to be 399 mL/min/kg.
For the molecule `O=C(O)c1cnc(/C=C/c2csc(-c3ccsc3)n2)s1`, the MDR1-MDCK efflux ratio amounted to 0.832; the intrinsic clearance, human liver microsomes stood at 7.87 mL/min/kg; the intrinsic clearance, rat liver microsomes was 59.3 mL/min/kg; the aqueous solubility is 77.5 µg/mL (≈ 242 µM).
`C[C@@H](NC(=O)N1CCC2(CCOCC2)CC1)c1ccc(F)cc1`: the MDR1-MDCK efflux ratio amounted to 2.32; the intrinsic clearance, human liver microsomes is 6.19 mL/min/kg; the intrinsic clearance, rat liver microsomes was determined as 237 mL/min/kg.
Take `CC(C)c1nnc(CNc2ncc(Br)cn2)n1C`: the MDR1-MDCK efflux ratio was determined as 4.39; the intrinsic clearance, human liver microsomes was no more than 4.74 mL/min/kg; the intrinsic clearance, rat liver microsomes is no more than 10.7 mL/min/kg.
In the case of `CN(Cc1cccnc1)Cc1ccc(C#N)o1`, the MDR1-MDCK efflux ratio came to 0.648; the intrinsic clearance, human liver microsomes worked out at 9.78 mL/min/kg; the intrinsic clearance, rat liver microsomes came to 69.7 mL/min/kg; the aqueous solubility came out at 30.7 µg/mL (≈ 135 µM).
In the case of `Cn1cncc1-c1ncccc1C(=O)N1CCCC1`, the MDR1-MDCK efflux ratio worked out at 17.3; the intrinsic clearance, human liver microsomes was no more than 4.74 mL/min/kg; the intrinsic clearance, rat liver microsomes is no more than 10.7 mL/min/kg; the aqueous solubility came out at 54.2 µg/mL (≈ 211 µM).
On to `CC(C)Cn1c(=O)[nH]c(=O)c2c1nc1n2CCCCC1`, for which the MDR1-MDCK efflux ratio amounted to 3.54; the intrinsic clearance, human liver microsomes was determined as 7.18 mL/min/kg; the intrinsic clearance, rat liver microsomes was found to be 28.2 mL/min/kg; the aqueous solubility turned out to be 62.7 µg/mL (≈ 227 µM).
